Patent publication US5391540A, “Substituted pyridine compounds” (Rohm and Haas Company, priority 1993, dated 1995)
“And” between values parts separate entries of the source, which are not always exact repeats. Equal values may be shown once.

Assays:
Type in all cases: in vivo
Cocw = experiment: plant injury after spraying emerged plants (Table D); parameters: scale not given here
Text: (§1) Topsoil (silt loam) is sieved through a screen having 1.27 cm openings. In some of the tests the soil was mixed with fertilizer (1225 g/cu. m of 12/5/9 containing isobutylidene diurea), while in other tests the fertilizer was omitted. This mixture is steam sterilized and then placed in aluminum pans 6.985 cm deep having ten holes in the bottom each 0.635 cm in diameter. The soil mixture is compacted to a depth of 1.27 cm. from the top of the pan. A predetermined number of seeds of each of several dicotyledonous and monocotyledonous annual plant species and/or vegetative propagules for the perennial plant species are placed on the soil and pressed into the soil surface. The seeds and/or vegetative propagules are covered with 1.27 cm of a mixture of 50% topsoil and 50% of a mixture of Canadian sphagnum peat moss, vermiculite and a wetting agent. The pans are then placed on a capillary mat on a greenhouse bench and subirrigated as needed. After the plants reach the desired stage (9 to 14 days, 1 to 3 true leaf stage), each pan (except the control pans) is removed to a spraying chamber and sprayed by means of an atomizer, operating at a spray pressure of 170.3 kPa ([…]) at the application rates noted in Table D. In the spray solution is an amount of an emulsifying agent mixture (35% butylamine salt of dodecylbenzenesulfonic acid and 65% tall oil condensed with ethylene oxide in the ratio of 11 mols of ethylene oxide/mol of tall oil) to give a spray solution or suspension. The spray solution or suspension contains a sufficient amount of the candidate chemical in order to give application rates of the active ingredient corresponding to those shown in Table D below while applying a total amount of solution or suspension equivalent to 1870 L/Ha (200 gallons/acre). The pans are returned to the greenhouse and watered as before and the injury to the plants as compared to the control pans is observed at approximately 10-14 days (usually 11 days).
(§2) In the following Table D the legends used to identify the plant species are the same as those used in the preceding Table B.

Pesw = experiment: as above; parameters: scale not given here
Text: as §1, §2

Sube = experiment: as above; parameters: scale not given here
Text: as §1, §2

Colq = experiment: as above; parameters: scale not given here
Text: as §1, §2

Quackgrass = experiment: Pre-emergent herbicidal activity (Table A); conditions: pre-emergence, Rhqg, 11.2 kg/ha, 10-14 days, read-out: herbicidal rating (% inhibition)
Procedure, shortened: (§3)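 Percent inhibition per species, scored on a rating scale, after pre-emergent soil incorporation: test compound in acetone or water carrier mixed into cover soil, layered over seeded topsoil or vegetative propagules.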

Rhizome Johnsongrass = experiment: Pre-emergent herbicidal activity (Table A); conditions: Sorghum halepense, pre-emergence, Rhjg, 11.2 kg/ha, 10-14 days, read-out: herbicidal rating (% inhibition)
Procedure, shortened: as §3

Canada thistle = experiment: Pre-emergent herbicidal activity (Table A); conditions: Cirsium arvense, pre-emergence, Cath, 11.2 kg/ha, 10-14 days, read-out: herbicidal rating (% inhibition)
Procedure, shortened: as §3

Pennsylvania Smartweed = experiment: Pre-emergent herbicidal activity (Table A); conditions: pre-emergence, Pesw, 11.2 kg/ha, 10-14 days, read-out: herbicidal rating (% inhibition)
Procedure, shortened: as §3

Common Lambsquarters = experiment: Pre-emergent herbicidal activity (Table A); conditions: Chenopodium album, pre-emergence, Colq, 11.2 kg/ha, 10-14 days, read-out: herbicidal rating (% inhibition)
Procedure, shortened: as §3

Jiwe = experiment: plant injury after spraying emerged plants (Table D); parameters: scale not given here
Text: as §1, §2

Compound | plant injury rating, Cocw (Cocw; 0.2803 kg/ha) | plant injury rating, Cocw (Cocw; 5.6050 kg/ha) | inhibition at 11200 g/ha (Quackgrass) [%] | inhibition at 11200 g/ha (Rhizome Johnsongrass) [%] | inhibition at 11200 g/ha (Canada thistle) [%] | inhibition at 11200 g/ha (Pennsylvania Smartweed) [%] | inhibition at 11200 g/ha (Common Lambsquarters) [%] | plant injury rating, Jiwe (Jiwe; 0.0701 kg/ha) | plant injury rating, Jiwe (Jiwe; 0.2803 kg/ha) | plant injury rating, Jiwe (Jiwe; 1.1210 kg/ha) | plant injury rating, Jiwe (Jiwe; 5.6050 kg/ha) | further results
COC(=O)c1c(OC)nc(C(F)(F)F)c(C(=O)SC)c1C1CCC1 [Compound 137, 3-pyridinecarboxylic acid, 4-cyclobuty1-2-methoxy-5-[(methylthio)carbonyl]-6-(trifluoromethyl)-, methyl ester] | 2 | 3 | – | – | – | – | – | – | – | – | – | plant injury rating, Cocw (Cocw; 1.1210 kg/ha): 3
COC(=O)c1c(OC)nc(C(F)(F)F)c(N=CSC)c1CC(C)C [Compound 77, 3-pyridinecarboxylic acid, 2-methoxy-4-(2-methylpropyl)-5-[[(methylthio)methylene]amino]-6-(trifluoromethyl)-, methyl ester] | – | – | 75 to 100 | 75 to 100 | 75 to 100 | 75 to 100 | 75 to 100 | – | – | – | – | plant injury rating, Pesw (Pesw; 1.1210 kg/ha): 0; plant injury rating, Pesw (Pesw; 2.8025 kg/ha): 0; plant injury rating, Pesw (Pesw; 5.6050 kg/ha): 0; plant injury rating, Pesw (Pesw; 11.2100 kg/ha): 2 and 1; plant injury rating, Sube (Sube; 1.1210 kg/ha): 1; plant injury rating, Sube (Sube; 2.8025 kg/ha): 2; plant injury rating, Sube (Sube; 5.6050 kg/ha): 2 and 1; plant injury rating, Sube (Sube; 11.2100 kg/ha): 2; plant injury rating, Colq (Colq; 1.1210 kg/ha): 3 and 2; plant injury rating, Colq (Colq; 2.8025 kg/ha): 3 and 2; plant injury rating, Colq (Colq; 5.6050 kg/ha): 2 and 3; plant injury rating, Colq (Colq; 11.2100 kg/ha): 2 and 3
COC(=O)c1c(OC)nc(C(F)(F)F)c(C(=O)Cl)c1CC1CC1 [Compound 113, 3-pyridinecarboxylic acid, 5-(chlorocarbonyl)-4-(cyclopropylmethyl)-2-methoxy-6-(trifluoromethyl)-, methyl ester] | 0 | 0 | – | – | – | – | – | – | – | – | – | –
COC(=O)c1c(O)nc(C(F)(F)F)c(C(=O)OC)c1CC(C)C [Compound 1, 3,5-pyridinedicarboxylic acid, 2-hydroxy-4-(2-methylpropyl)-6-(trifluoromethyl)-, dimethyl ester] | – | – | 0 to 24 | 0 to 24 | 0 to 24 | 0 to 24 | 0 to 24 | 0 | 2 and 1 | 2 | – | plant injury rating, Jiwe (Jiwe; 5.3808 kg/ha): 4 and 3
COC(=O)c1c(OC)nc(C(F)(F)F)c(-c2nnc(C)o2)c1CC(C)C [Compound 103, 3-pyridinecarboxylic acid, 2-methoxy-5-(5-methy1-1,3,4-oxadiazo1-2-yl)-4-(2-methylpropyl)-6-(trifluoromethyl)-, methyl ester] | – | – | – | – | – | – | – | 0 | 0 | – | 2 | plant injury rating, Jiwe (Jiwe; 1.1219 kg/ha): 2
COC(=O)c1c(OC)nc(C(F)(F)F)c(C2SCCS2)c1CC(C)C [Compound 93, 3-pyridinecarboxylic acid, 5-(1,3-dithiolan-2-yl)-2-methoxy-4-(2-methylpropyl)-6-(trifluoromethyl)-, methyl ester] | – | – | – | – | – | – | – | 2 | 2 | 3 | 3 | –
COC(=O)c1c(OC)nc(C(F)(F)F)c(C(=O)n2ccc(F)n2)c1C1CCC1 [Compound 140, 3-pyridinecarboxylic acid, 4-cyclobuty1-5-[(3-fluoro-1H-pyrazo1-1-yl)carbonyl]-2-methoxy-6-(trifluoromethyl)-, methyl ester] | 2 | 3 | – | – | – | – | – | – | – | – | – | plant injury rating, Cocw (Cocw; 1.1210 kg/ha): 2
COC(=O)c1c(OC)nc(C(F)(F)Cl)c(C(=O)OC)c1CC(C)C [Compound 30, 3,5-pyridinedicarboxylic acid, 2-(chlorodifluoromethyl)-6-methoxy-4-(2-methylpropyl)-, dimethyl ester] | – | – | 75 to 100 | 75 to 100 | 75 to 100 | 75 to 100 | 75 to 100 | – | – | – | – | plant injury rating, Pesw (Pesw; 0.5605 kg/ha): 0; plant injury rating, Pesw (Pesw; 1.1210 kg/ha): 0; plant injury rating, Pesw (Pesw; 2.8025 kg/ha): 1; plant injury rating, Pesw (Pesw; 5.6050 kg/ha): 1; plant injury rating, Pesw (Pesw; 8.4075 kg/ha): 1; plant injury rating, Pesw (Pesw; 11.2100 kg/ha): 1; plant injury rating, Sube (Sube; 0.5605 kg/ha): 0; plant injury rating, Sube (Sube; 1.1210 kg/ha): 1; plant injury rating, Sube (Sube; 2.8025 kg/ha): 1; plant injury rating, Sube (Sube; 5.6050 kg/ha): 1; plant injury rating, Sube (Sube; 8.4075 kg/ha): 1; plant injury rating, Sube (Sube; 11.2100 kg/ha): 1; plant injury rating, Colq (Colq; 0.5605 kg/ha): 0; plant injury rating, Colq (Colq; 1.1210 kg/ha): 0; plant injury rating, Colq (Colq; 2.8025 kg/ha): 1; plant injury rating, Colq (Colq; 5.6050 kg/ha): 1; plant injury rating, Colq (Colq; 8.4075 kg/ha): 1; plant injury rating, Colq (Colq; 11.2100 kg/ha): 2
COC(=O)c1c(OC)nc(C(F)(F)F)c(C(=O)n2cccn2)c1CC1CC1 [Compound 116, 3-pyridinecarboxylic acid, 4-(cyclopropylmethyl)-2-methoxy-5-(1H-pyrazo1-1-ylcarbonyl)-6-(trifluoromethyl)-, methyl ester] | 1 | 2 | – | – | – | – | – | – | – | – | – | plant injury rating, Cocw (Cocw; 0.0701 kg/ha): 0; plant injury rating, Cocw (Cocw; 1.1210 kg/ha): 2
COC(=O)c1c(OC)nc(C(F)(F)F)c(C2=NCCCS2)c1CC(C)C [Compound 98, 3-pyridinecarboxylic acid, 5-(5,6-dihydro-4H-1,3-thiazin-2-yl)-2-methoxy-4-(2-methylpropyl)-6-(trifluoromethyl)-, methyl ester] | – | – | – | – | – | – | – | 2 | 2 | 3 | 3 | –
COC(=O)c1c(OC)nc(C(F)(F)F)c(C(=O)NCCCBr)c1CC(C)C [Compound 97, 3-pyridinecarboxylic acid, 5-[[(3-bromopropyl)amino)carbonyl]-2-methoxy-4-(2-methylpropyl)-6-(trifluoromethyl)-, methyl ester] | – | – | – | – | – | – | – | 0 | 0 | 0 | 1 | –
COC(=O)c1c(OC)nc(C(F)(F)F)c(C2=NCCS2)c1CC(C)C [Compound 50, 3-pyridinecarboxylic acid, 5-(4,5-dihydro-2-thiazolyl)-2-methoxy-4-(2-methylpropyl)-6-(trifluoromethyl)-, methyl ester] | – | – | 75 to 100 | 75 to 100 | 75 to 100 | 75 to 100 | 75 to 100 | 2 | 2 | 2 and 3 | – | plant injury rating, Jiwe (Jiwe; 5.3808 kg/ha): 3
